Results from US7285618B1, “Polypeptides having neutrophil stimulating activity” (Japan Tobacco Inc., priority 2000, dated 2007).
pEC50: −log10 of the molar value. Where two headings read alike, the source gives them in different places. Where no end group is shown, it is not given here.

Columns and labels:
[1] = test system: differentiated HL60 cells; experiment: Migration promoting activity (Chemotaxis Cells), differentiated HL60 cells; assay type: cell-based, human
Procedure: The migration promoting activity of each of the polypeptides of interest was measured using Chemotaxis Cells (Kurabo) as follows: The differentiated HL60 cells or undifferentiated HL60 cells were washed three times with ice-cooled HBHS and a cell suspension was prepared at a cell density of 4×10^6 cells/ml. The cell suspension was incubated at 37° C. for 10 minutes; thereafter, 500 μl of the cell suspension was transferred to Chemotaxis Cells (2×10^6 cells/Cell), which were put on a micro-well plate filled with pre-heated (37° C.) HBHS containing 1 ml of polypeptide and incubation was performed at 37° C. for 1 hour. Then, the Chemotaxis Cells were removed from the plate and the number of cells that had migrated in each well was counted.
Migration promoting activity was expressed by a chemotaxis index, or the number of cells that migrated upon stimulation was divided by the number of cells migrated without stimuli.
The activity of the human homologues of COSP-1 and fCyt b (1-15) for promoting β-HA secretion and migration promoting activities were measured following the methods described in Examples 4 and 5, respectively. The activity for β-HA secretion was expressed by the percentage for the maximum amount of secretion upon stimulation with 10 μM of fMLP, whereas the activity for migration was expressed by a chemotaxis index, i.e., the ratio of the number of stimulated migrating cells to that of unstimulated migrating cells.

[2] = test system: undifferentiated HL60 cells; experiment: Intracellular Ca2+ concentration (fura-2), undifferentiated HL60 cells; assay type: cell-based, human
Procedure: (§1) The differentiated HL60 cells or undifferentiated HL60 cells were washed twice with a Hepes-Na solution (140 mM NaCl, 4 mM KCl, 1 mM NaH2PO4, 1 mM MgCl2, 1.25 mM CaCl2, 5 mM Hepes, 11 mM glucose, 0.2% BSA, pH 7.4). Then, Ca^2+ sensitive fluorescence reagent, fura-2/AM, was added to the cell suspension (4 ml: final concentration, 4 μM). The reaction mixture was then shaken gently at room temperature for 60 minutes, shielded from light in order to incorporate fura-2 into the HL60 cells. Subsequently, the cells were washed twice with a Hepes-Na solution and a cell suspension was prepared at a final cell density of 1.0×10^6 cells/ml. One milliliter of the cell suspension was put into reaction cuvettes and stimulated with various samples under stirring at 30° C. Ratios of fluorescence intensity at 500 nm (F) for an excitation wavelength at 340 nm to that at 380 nm were measured with a fluorimeter (CAF-100, Japan Spectroscopic Co., Ltd.) and [Ca^2+]i was calculated following the formula: [Ca^2+]i(nM)=K×{(F−Fmin)/(Fmax−F)}×A/B, wherein
(§2) Fmax: a ratio of fluorescence intensity at 500 nm for an excitation wavelength at 340 nm to that at 380 nm after all cells were solubilized with 0.1% Triton X-100;
(§3) Fmin: a ratio of fluorescence intensity at 500-nm for an excitation wavelength at 340 nm to that at 380 nm after the whole calcium was chelated with 4 mM EGTA;
(§4) A: fluorescence intensity at 500-nm for an excitation wavelength at 380 nm, when all the calcium was chelated with EGTA;
(§5) B: fluorescence intensity at 500-nm for an excitation wavelength at 380 nm, when all cells were solubilized with Triton X-100;
(§6) K: 224 (nM) (the dissociation constant of fura-2).

HL60 cells [3] = assay type: cell-based, human
Procedure: Cells were cultivated following the method as described in Example 4, except that the RPMI-1640 medium containing contained 15% of FCS, and that in order to differentiate the HL60 cells into neutrophil-like cells, a cell suspension was prepared such that the cell density in the flask would be 0.5×10^6 cells/ml at the time of addition of db-cAMP (final concentration, 0.5 mM). The β-HA secretion promoting activities of COSP-1 and fMLP were measured 24, 48 and 72 hours after the differentiation.

[4] = test system: differentiated HL60 cells; experiment: Intracellular Ca2+ concentration (fura-2), differentiated HL60 cells; assay type: cell-based, human; conditions: for increase of intracellular Ca2+ concentration in the absence of extracellular Ca2+: absence of Ca2+ (−) versus presence (+); for increase in intracellular Ca2+ concentration upon stimulation after PTX treatment: cells treated with 50 ng/ml PTX for 16 hours; for intracellular Ca2+ concentration: differentiated HL60 cells (+); for intracellular Ca2+ concentration with or without extracellular Ca2+: extracellular Ca2+ present or not
Procedure: as §1, §2, §3, §4, §5, §6

HL60 cells [5] = assay type: cell-based, human; remark: listed apart in the source
human neutrophils = experiment: β-HA secretion from human neutrophils; assay type: cell-based; conditions: for β-HA secretion from neutrophil cells (%/total): human neutrophils; for secretion of β-HA from human neutrophils: stimulation with 10 μM
Procedure: b. Preparation of Human Leukocytes
Thirty milliliters of human peripheral blood (containing 500 units of heparin sodium) was plated on 5 ml of Lymphocepal I in each of 4 centrifugal tubes and spun down (400 g, 30 min) at room temperature. After spinning, the monocytes and lymphocytes forming a turbid layer at the interface between the plasma and Lymphocepal I were carefully taken to be removed. […] The Percoll layer containing neutrophils was carefully taken and washed with physiological saline. Then, it was replaced by a 0.2% NaCl solution and about 30 seconds later, an equal amount of 1.6% NaCl aqueous solution was added; this procedure was repeated twice, whereby the left erythrocytes were lysed and neutrophils were isolated.
The purities of these monocyte-lymphocyte mixed cells and neutrophils were assayed by analysis with a flow cytometer. Propidium iodide was added to the cell suspension at a final concentration of 100 ng/ml in order to stain dead cells. Using a flow cytometer, forward scatter intensity and side scatter intensity were measured on a linear scale only for the negative cells (living cells) in the cell suspension for the propidium iodide-staining. The results were processed by CellQuest software and represented as a dot plot of forward scatter intensity (X-axis) and side scatter intensity (Y-axis). The purify of monocycle-lymphocyte mixed cells were 84% and that of the neutrophils were 83%. […]
c. Stimulation of the Cell […]
d. Measuring β-HA Enzyme Activity
The amount of β-HA secreted into the reaction supernatant was determined by measuring the absorbance at 415 nm of p-nitrophenol that was generated by an enzymatic reaction involving p-nitrophenyl N-acetyl-β-D-glucosaminide as a substrate. To be specific, 90 μl of the reaction supernatant was transferred to a 96-well Immuno plate (Nunc) and 60 μl of a substrate solution (10 mM p-nitrophenyl N-acetyl-β-D-glucosaminide/40 mM citrate, 70 mM Na2HPO4, pH 4.5) was added to initiate an enzymatic reaction. Following a 1-hr reaction at 37° C., 100 μl of a reaction quencher (400 mM glycine, pH 10.7) was added to stop the reaction and the absorbance at 415 nm was measured. As a control, cells were treated with Triton X-100 at a final concentration of 0.05% and the amount of β-HA in the supernatant was measured. As another control, the amount of β-HA secreted from cells upon stimulation with fMLP at a final concentration of 10 μM was measured.

Row | Molecule | activity for migration at the concentrations where β-HA secretion was observed ([1]; Example 12) | concentrations of migration activity relative to the concentration for β-HA secretion ([1]; Example 12) | intracellular Ca2+ concentration [2] | pEC50 (HL60 cells [3]; 24 h) | pEC50 (HL60 cells [3]; 48 h) | pEC50 (HL60 cells [3]; 72 h) | Max. (%/total), maximum secretion on average (HL60 cells [3]; Differentiation 24 hr) [%/total] | Max. (%/total), maximum secretion on average (HL60 cells [3]; Differentiation 48 hr) [%/total] | Max. (%/total), maximum secretion on average (HL60 cells [3]; Differentiation 72 hr) [%/total] | increase of intracellular Ca2+ concentration in the absence of extracellular Ca2+ [4] | increase in intracellular Ca2+ concentration upon stimulation after PTX treatment [4] | intracellular Ca2+ concentration [4] | intracellular Ca2+ concentration with or without extracellular Ca2+ [4] | β-HA secretion to the undifferentiated HL60 cells (HL60 cells [5]) | β-HA secretion from neutrophil cells (%/total) (human neutrophils) | secretion of β-HA from human neutrophils (human neutrophils) [%] | migration promoting (attracting) activity [1]
1 | CSCC[C@H](NC=O)C(=O)N[C@@H](CC(C)C)C(=O)N[C@@H](Cc1ccccc1)C(=O)O [fMLP, formyl methionyl-leucyl-phenylalanine, reference compound] | also observed | observed at concentrations lower | did not increase | 6.96 | 7.66 | 8.03 | 17.4 | 40.6 | 48.4 | reduced | almost completely inhibited | increased | increased irrespective of whether extracellular Ca^2+ was present or not | Neither COSP-1 nor fMLP caused the β-HA secretion | 68.3 | 68.3 | 
2 | LSFLIPAGWVLSHLDHYKRSSAA-OH [COSP-1] |  |  | did not increase | 5.92 | 6.35 | 6.57 | 15.6 | 35.7 | 45.3 | reduced | almost completely inhibited | increased | increased irrespective of whether extracellular Ca^2+ was present or not | Neither COSP-1 nor fMLP caused the β-HA secretion | 40.5 | 40.5 | attracting activity
